{"source": "patent EP0004894A1", "about": "“Fertilizer for providing plants with iron” (BAYER AG, priority 1978, dated 1979)", "key": {"[1]": {"tested_on": "Chrysanthemum indicum (Sorte: Yellow Delaware)", "assay": "Iron deficiency control / leaf uptake test (Eisenmangel-Bekämpfung / Blattaufnehmbarkeits-Test)", "format": "in vivo", "details": "for Intenistät der Grünfärbung junger Blätter / Ø Anzahl neu gebildeter Blätter: sprayed twice on fully chlorotic plants", "excerpt": "Eisenmangel-Bekämpfung / Blattaufnehmbarkeits-Test\nIn einem Kultursubstrat der oben angegebenen Zusammensetzung werden Versuchspflanzen angezogen, wobei die Dünung und die Bewässerung dadurch erfolgt, daß man zweimal wöchentlich eine mineralische Eisenmangel-Nährlösung nach Hoagland und Arnon (Circular 347, College of Agriculture, University of California, Berkeley 1950) hinzugibt. Die so angezogenen völlig chlorotischen Versuchspflanzen werden in Fünfblattstadium mit der Wirkstoffzubereitung tropfnaß besprüht, wobei durch Abdecken dafür gesorgt wird, daß die Wirkstoffzubereitung nicht in das Kultursubstrat gelangt. Nach 2 Tagen wird erneut in gleicher Weise mit der Wirkstoffzubereitung besprüht. Die Auswertung erfolgt dann, wenn bei den mit einem wasserlöslichen, handelsüblichen Eisen-Dünger in optimaler Menge behandelten Pflanzen durchschnittlich 3 Blätter neu gebildet sind. Es wird jeweils die durchschnittliche Anzahl neu gebildeteter Blätter bei allen Versuchspflanzen ermittelt. Ferner wird die Intensität der Grünfärbung von neu gebildeten Blättern bonitiert und durch Kennzahlen ausgedrückt."}, "[2]": {"assay": "Water solubility of the preparation", "format": "physicochemical"}, "[3]": {"details": "0,1 % preparation in spray liquid"}, "[4]": {"details": "0,02 % preparation in spray liquid"}, "[5]": {"details": "0,5 % preparation in spray liquid"}}, "data": [{"compound": "CC(CC(=O)[c-]1cccc1)CC(C)(C)C.[Fe+2].c1cc[cH-]c1", "note": "(stereo not drawn) [3,5,5-Trimethylhexanoyl-ferrocen]", "values": [{"measurement": "Intenistät der Grünfärbung junger Blätter", "setting": "[1]; [3]", "result": 2}, {"measurement": "Ø Anzahl neu gebildeter Blätter", "setting": "[1]; [3]", "result": 5}, {"measurement": "Intenistät der Grünfärbung junger Blätter", "setting": "[1]; [4]", "result": "3 (25 %-ig chlorotisch)"}, {"measurement": "Ø Anzahl neu gebildeter Blätter", "setting": "[1]; [4]", "result": 4}, {"measurement": "Intenistät der Grünfärbung junger Blätter", "setting": "[1]; [5]", "result": "1 (0 %-ig chlorotisch (dunkelgrün))"}, {"measurement": "Ø Anzahl neu gebildeter Blätter", "setting": "[1]; [5]", "result": 7}, {"measurement": "Eisenmangel", "setting": "[1]; fully chlorotic Chrysanthemum indicum, Sorte Yellow Delaware", "result": "stark verringern oder sogar völlig beheben"}, {"measurement": "Wasserlöslichkeit des Präparates", "setting": "[2]", "result": "gering"}]}, {"compound": "CCC(=O)c1cc[cH-]c1.[Fe+2].c1cc[cH-]c1", "note": "[Propionylferrocen, reference compound]", "values": [{"measurement": "Intenistät der Grünfärbung junger Blätter", "setting": "[1]; [3]", "result": "3 (25 %-ig chlorotisch)"}, {"measurement": "Ø Anzahl neu gebildeter Blätter", "setting": "[1]; [3]", "result": 4}, {"measurement": "Intenistät der Grünfärbung junger Blätter", "setting": "[1]; [4]", "result": 8}, {"measurement": "Ø Anzahl neu gebildeter Blätter", "setting": "[1]; [4]", "result": 3}, {"measurement": "Intenistät der Grünfärbung junger Blätter", "setting": "[1]; [5]", "result": 2}, {"measurement": "Ø Anzahl neu gebildeter Blätter", "setting": "[1]; [5]", "result": 5}, {"measurement": "Wasserlöslichkeit des Präparates", "setting": "[2]", "result": "gering"}]}]}
